Results reported in patent publication US10588317B2, “Isoxazoline-substituted benzamides and analogues as insecticides” (priority 2015, dated 2020).

Columns and labels:
Format in all cases: in vivo
Euschistus heros = Euschistus heros (neotropical brown stink bug), sprayed soybean leaves; settings: 120 h, application rate 200 ppm, N2 nymphs, 5 days after infestation, read-out: effect in at least one of the two categories (mortality or growth inhibition)
Method in brief: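 Soybean leaves on agar sprayed with aqueous dilutions of DMSO stocks, dried, then infested with N2 nymphs. Mortality and growth inhibition scored against untreated samples 5 days after infestation; application rate 200 ppm.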

Spodoptera littoralis [1] = experiment: Spodoptera littoralis (Egyptian cotton leaf worm), sprayed cotton leaf discs; settings: foliar, 72 h, application rate 200 ppm, L1 larvae, 3 days after infestation, read-out: control (mortality, anti-feeding effect, growth inhibition)
Method in brief: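 Cotton leaf discs on agar sprayed with aqueous test solutions made from 10'000 ppm DMSO stock; after drying, infested with five L1 larvae. Mortality, anti-feeding and growth inhibition scored versus untreated samples 3 days after infestation; control counted when any category exceeds untreated.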

Plutella xylostella = Plutella xylostella (diamond back moth), artificial diet; settings: 120 h, application rate 200 ppm, L2 larvae, 5 days after infestation, read-out: effect in at least one of the two categories (mortality or growth inhibition)
Method in brief: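 Artificial diet in 24-well plates treated with aqueous test solutions made from 10'000 ppm DMSO stocks, dried, then infested with L2 larvae (10 to 15 per well). Mortality and growth inhibition scored against untreated samples 5 days after infestation; activity cut-off at least 80% in either category at 200 ppm.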

Tetranychus urticae = Tetranychus urticae (two-spotted spider mite): feeding/contact activity; settings: 192 h, application rate 200 ppm, mixed population (mobile stages), 8 days after infestation, read-out: mortality
Procedure: Bean leaf discs on agar in 24-well microtiter plates were sprayed with aqueous test solutions prepared from 10'000 ppm DMSO stock solutions. After drying the leaf discs were infested with a mite population of mixed ages. The samples were assessed for mortality on mixed population (mobile stages) 8 days after infestation.

Thrips tabaci = Thrips tabaci (onion thrips): feeding/contact activity; settings: 144 h, application rate 200 ppm, Thrips population of mixed ages, 6 days after infestation, read-out: mortality
Procedure: Sunflower leaf discs were placed on agar in 24-well microtiter plates and sprayed with aqueous test solutions prepared from 10'000 ppm DMSO stock solutions. After drying the leaf discs were infested with a Thrips population of mixed ages. The samples were assessed for mortality 6 days after infestation.

Diabrotica balteata = Diabrotica balteata (corn root worm), sprayed maize sprouts; settings: 96 h, application rate 200 ppm, L2 larvae, 4 days after infestation, read-out: effect in at least one of the two categories (mortality or growth inhibition)
Method in brief: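 Maize sprouts on agar sprayed with aqueous dilutions of DMSO stocks, dried, then infested with L2 larvae (6–10 per well). Mortality and growth inhibition scored against untreated controls 4 days after infestation, at 200 ppm application rate.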

Myzus persicae = Myzus persicae (green peach aphid): feeding/contact activity; settings: 144 h, application rate 200 ppm, aphid population of mixed ages, 6 days after infestation, read-out: mortality
Procedure: Sunflower leaf discs were placed onto agar in a 24-well microtiter plate and sprayed with aqueous test solutions prepared from 10'000 ppm DMSO stock solutions. After drying, the leaf discs were infested with an aphid population of mixed ages. The samples were assessed for mortality 6 days after infestation.

Spodoptera littoralis [2] = experiment: Spodoptera littoralis (Egyptian cotton leaf worm), uptake by lettuce roots from agar; settings: 144 h, read-out: effect in at least one of the three categories (mortality, anti-feeding, or growth inhibition); for percent effect (mortality, anti-feeding or growth inhibition) at 12.5 ppm: test rate 12.5 ppm, eggs, 6 days after infestation
Method in brief: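 Compound from 10'000 ppm DMSO stocks was mixed into agar, and lettuce grew on it for 7 days to take it up via roots. Cut leaves were infested with Spodoptera eggs; mortality, anti-feedant effect and growth inhibition scored 6 days later versus untreated samples.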

Cc1cc(C2=NO[C@@](c3cc(Cl)c(Cl)c(Cl)c3)(C(F)(F)F)C2)ccc1C(=O)N[C@H]1CON(S(C)(=O)=O)C1 [Compound A36]
≥ 80%: percent effect (mortality or growth inhibition) at 200 ppm (Euschistus heros) | mortality at 200 ppm (Spodoptera littoralis [1]) | percent effect (mortality or growth inhibition) at 200 ppm (Plutella xylostella) | mortality at 200 ppm (Tetranychus urticae) | mortality at 200 ppm (Thrips tabaci) | percent effect (mortality or growth inhibition) at 200 ppm (Diabrotica balteata) | mortality at 200 ppm (Myzus persicae) | percent control (mortality, anti-feedant effect or growth inhibition) at 12.5 ppm (Spodoptera littoralis [2])

Cc1cc(C2=NO[C@@](c3cc(Cl)cc(Cl)c3)(C(F)(F)F)C2)ccc1C(=O)N[C@H]1CON(S(C)(=O)=O)C1 [Compound A38]
≥ 80%: percent effect (mortality or growth inhibition) at 200 ppm (Euschistus heros) | mortality at 200 ppm (Spodoptera littoralis [1]) | percent effect (mortality or growth inhibition) at 200 ppm (Plutella xylostella) | mortality at 200 ppm (Tetranychus urticae) | mortality at 200 ppm (Thrips tabaci) | percent effect (mortality or growth inhibition) at 200 ppm (Diabrotica balteata) | mortality at 200 ppm (Myzus persicae) | percent control (mortality, anti-feedant effect or growth inhibition) at 12.5 ppm (Spodoptera littoralis [2])

Cc1cc(C2=NO[C@@](c3cc(Cl)cc(Cl)c3)(C(F)(F)F)C2)ccc1C(=O)N[C@H]1CON(S(=O)(=O)N(C)C)C1 [Compound A39]
≥ 80%: percent effect (mortality or growth inhibition) at 200 ppm (Euschistus heros) | mortality at 200 ppm (Spodoptera littoralis [1]) | percent effect (mortality or growth inhibition) at 200 ppm (Plutella xylostella) | mortality at 200 ppm (Tetranychus urticae) | mortality at 200 ppm (Thrips tabaci) | percent effect (mortality or growth inhibition) at 200 ppm (Diabrotica balteata) | mortality at 200 ppm (Myzus persicae) | percent control (mortality, anti-feedant effect or growth inhibition) at 12.5 ppm (Spodoptera littoralis [2])

Cc1cc(C2=NO[C@@](c3cc(Cl)cc(Cl)c3)(C(F)(F)F)C2)ccc1C(=O)NC1CON(S(C)(=O)=O)C1 (some centres unmarked) [Compound A40]
≥ 80%: percent effect (mortality or growth inhibition) at 200 ppm (Euschistus heros) | mortality at 200 ppm (Spodoptera littoralis [1]) | percent effect (mortality or growth inhibition) at 200 ppm (Plutella xylostella) | mortality at 200 ppm (Tetranychus urticae) | mortality at 200 ppm (Thrips tabaci) | percent effect (mortality or growth inhibition) at 200 ppm (Diabrotica balteata) | mortality at 200 ppm (Myzus persicae) | percent control (mortality, anti-feedant effect or growth inhibition) at 12.5 ppm (Spodoptera littoralis [2])

Cc1cc(C2=NO[C@@](c3cc(Cl)cc(Cl)c3)(C(F)(F)F)C2)ccc1C(=O)NC1CON(S(=O)(=O)N(C)C)C1 (some centres unmarked) [Compound A41]
≥ 80%: percent effect (mortality or growth inhibition) at 200 ppm (Euschistus heros) | mortality at 200 ppm (Spodoptera littoralis [1]) | percent effect (mortality or growth inhibition) at 200 ppm (Plutella xylostella) | mortality at 200 ppm (Tetranychus urticae) | mortality at 200 ppm (Thrips tabaci) | percent effect (mortality or growth inhibition) at 200 ppm (Diabrotica balteata) | mortality at 200 ppm (Myzus persicae) | percent control (mortality, anti-feedant effect or growth inhibition) at 12.5 ppm (Spodoptera littoralis [2])

CCS(=O)(=O)N1CC(NC(=O)c2ccc(C3=NO[C@@](c4cc(Cl)cc(C(F)(F)F)c4)(C(F)(F)F)C3)cc2C)CO1 (some centres unmarked) [Compound A42]
≥ 80%: percent effect (mortality or growth inhibition) at 200 ppm (Euschistus heros) | mortality at 200 ppm (Spodoptera littoralis [1]) | percent effect (mortality or growth inhibition) at 200 ppm (Plutella xylostella) | mortality at 200 ppm (Tetranychus urticae) | mortality at 200 ppm (Thrips tabaci) | percent effect (mortality or growth inhibition) at 200 ppm (Diabrotica balteata) | mortality at 200 ppm (Myzus persicae) | percent control (mortality, anti-feedant effect or growth inhibition) at 12.5 ppm (Spodoptera littoralis [2])

CCS(=O)(=O)N1CC(NC(=O)c2ccc(C3=NO[C@@](c4cc(Cl)c(F)c(Cl)c4)(C(F)(F)F)C3)cc2Br)CO1 (stereo partly drawn) [Compound A44, 2-bromo-4-[(5S)-5-(3,5-dichloro-4-fluoro-phenyl)-5-(trifluoromethyl)-4H-isoxazol-3-yl]-N-(2-ethylsulfonylisoxazolidin-4-yl)benzamide]
≥ 80%: percent effect (mortality or growth inhibition) at 200 ppm (Euschistus heros) | mortality at 200 ppm (Spodoptera littoralis [1]) | percent effect (mortality or growth inhibition) at 200 ppm (Plutella xylostella) | mortality at 200 ppm (Tetranychus urticae) | mortality at 200 ppm (Thrips tabaci) | percent effect (mortality or growth inhibition) at 200 ppm (Diabrotica balteata) | mortality at 200 ppm (Myzus persicae) | percent control (mortality, anti-feedant effect or growth inhibition) at 12.5 ppm (Spodoptera littoralis [2])

Cc1cc(C2=NOC(c3cc(Cl)c(Br)c(Cl)c3)(C(F)(F)F)C2)ccc1C(=O)NC1CON(S(C)(=O)=O)C1 (centres unmarked) [Compound A45]
≥ 80%: percent effect (mortality or growth inhibition) at 200 ppm (Euschistus heros) | mortality at 200 ppm (Spodoptera littoralis [1]) | percent effect (mortality or growth inhibition) at 200 ppm (Plutella xylostella) | mortality at 200 ppm (Tetranychus urticae) | mortality at 200 ppm (Thrips tabaci) | percent effect (mortality or growth inhibition) at 200 ppm (Diabrotica balteata) | mortality at 200 ppm (Myzus persicae) | percent control (mortality, anti-feedant effect or growth inhibition) at 12.5 ppm (Spodoptera littoralis [2])

Cc1cc(C2=NOC(c3cc(C(F)(F)F)cc(C(F)(F)F)c3)(C(F)(F)F)C2)ccc1C(=O)NC1CON(S(C)(=O)=O)C1 (centres unmarked) [Compound A59]
≥ 80%: percent effect (mortality or growth inhibition) at 200 ppm (Euschistus heros) | mortality at 200 ppm (Spodoptera littoralis [1]) | percent effect (mortality or growth inhibition) at 200 ppm (Plutella xylostella) | mortality at 200 ppm (Tetranychus urticae) | mortality at 200 ppm (Thrips tabaci) | percent effect (mortality or growth inhibition) at 200 ppm (Diabrotica balteata) | mortality at 200 ppm (Myzus persicae) | percent control (mortality, anti-feedant effect or growth inhibition) at 12.5 ppm (Spodoptera littoralis [2])

Cc1cc(C2=NOC(c3cc(Cl)c(Cl)c(Cl)c3)(C(F)(F)F)C2)ccc1C(=O)NC1CON(S(C)(=O)=O)C1 (centres unmarked) [Compound A61]
≥ 80%: percent effect (mortality or growth inhibition) at 200 ppm (Euschistus heros) | mortality at 200 ppm (Spodoptera littoralis [1]) | percent effect (mortality or growth inhibition) at 200 ppm (Plutella xylostella) | mortality at 200 ppm (Tetranychus urticae) | mortality at 200 ppm (Thrips tabaci) | percent effect (mortality or growth inhibition) at 200 ppm (Diabrotica balteata) | mortality at 200 ppm (Myzus persicae) | percent control (mortality, anti-feedant effect or growth inhibition) at 12.5 ppm (Spodoptera littoralis [2])

Cc1cc(C2=NOC(c3cc(Cl)cc(C(F)(F)F)c3)(C(F)(F)F)C2)ccc1C(=O)NC1CON(S(C)(=O)=O)C1 (centres unmarked) [Compound A62]
≥ 80%: percent effect (mortality or growth inhibition) at 200 ppm (Euschistus heros) | mortality at 200 ppm (Spodoptera littoralis [1]) | percent effect (mortality or growth inhibition) at 200 ppm (Plutella xylostella) | mortality at 200 ppm (Tetranychus urticae) | mortality at 200 ppm (Thrips tabaci) | percent effect (mortality or growth inhibition) at 200 ppm (Diabrotica balteata) | mortality at 200 ppm (Myzus persicae) | percent control (mortality, anti-feedant effect or growth inhibition) at 12.5 ppm (Spodoptera littoralis [2])

Cc1cc(C2=NOC(c3cc(Cl)c(F)c(Cl)c3)(C(F)(F)F)C2)ccc1C(=O)NC1CON(S(C)(=O)=O)C1 (centres unmarked) [Compound A63]
≥ 80%: percent effect (mortality or growth inhibition) at 200 ppm (Euschistus heros) | mortality at 200 ppm (Spodoptera littoralis [1]) | percent effect (mortality or growth inhibition) at 200 ppm (Plutella xylostella) | mortality at 200 ppm (Tetranychus urticae) | mortality at 200 ppm (Thrips tabaci) | percent effect (mortality or growth inhibition) at 200 ppm (Diabrotica balteata) | mortality at 200 ppm (Myzus persicae) | percent control (mortality, anti-feedant effect or growth inhibition) at 12.5 ppm (Spodoptera littoralis [2])

Cc1cc(C2=NOC(c3cc(Cl)cc(Cl)c3)(C(F)(F)Cl)C2)ccc1C(=O)NC1CON(S(C)(=O)=O)C1 (centres unmarked) [Compound A64]
≥ 80%: percent effect (mortality or growth inhibition) at 200 ppm (Euschistus heros) | mortality at 200 ppm (Spodoptera littoralis [1]) | percent effect (mortality or growth inhibition) at 200 ppm (Plutella xylostella) | mortality at 200 ppm (Tetranychus urticae) | mortality at 200 ppm (Thrips tabaci) | percent effect (mortality or growth inhibition) at 200 ppm (Diabrotica balteata) | mortality at 200 ppm (Myzus persicae) | percent effect (mortality, anti-feeding or growth inhibition) at 12.5 ppm (Spodoptera littoralis [2])

C=Cc1cc(C2=NOC(c3cc(Cl)cc(Cl)c3)(C(F)(F)F)C2)ccc1C(=O)NC1CON(S(C)(=O)=O)C1 (centres unmarked) [Compound A65]
≥ 80%: percent effect (mortality or growth inhibition) at 200 ppm (Euschistus heros) | mortality at 200 ppm (Spodoptera littoralis [1]) | percent effect (mortality or growth inhibition) at 200 ppm (Plutella xylostella) | mortality at 200 ppm (Tetranychus urticae) | mortality at 200 ppm (Thrips tabaci) | percent effect (mortality or growth inhibition) at 200 ppm (Diabrotica balteata) | mortality at 200 ppm (Myzus persicae) | percent control (mortality, anti-feedant effect or growth inhibition) at 12.5 ppm (Spodoptera littoralis [2])

Cc1cc(C2=NOC(c3ccc(Cl)c(Cl)c3)(C(F)(F)F)C2)ccc1C(=O)NC1CON(S(C)(=O)=O)C1 (centres unmarked) [Compound A66]
≥ 80%: percent effect (mortality or growth inhibition) at 200 ppm (Euschistus heros) | mortality at 200 ppm (Spodoptera littoralis [1]) | percent effect (mortality or growth inhibition) at 200 ppm (Plutella xylostella) | mortality at 200 ppm (Tetranychus urticae) | mortality at 200 ppm (Thrips tabaci) | percent effect (mortality or growth inhibition) at 200 ppm (Diabrotica balteata) | mortality at 200 ppm (Myzus persicae) | percent effect (mortality, anti-feeding or growth inhibition) at 12.5 ppm (Spodoptera littoralis [2])

CNS(=O)(=O)N1C[C@@H](NC(=O)c2ccc(C3=NO[C@@](c4cc(Cl)c(Cl)c(Cl)c4)(C(F)(F)F)C3)cc2C)CO1 [Compound A67, 2-methyl-N-[(4R)-2-(methylsulfamoyl)isoxazolidin-4-yl]-4-[(5S)-5-(3,4,5-trichlorophenyl)-5-(trifluoromethyl)-4H-isoxazol-3-yl]benzamide]
≥ 80%: percent effect (mortality or growth inhibition) at 200 ppm (Euschistus heros) | mortality at 200 ppm (Spodoptera littoralis [1]) | percent effect (mortality or growth inhibition) at 200 ppm (Plutella xylostella) | mortality at 200 ppm (Tetranychus urticae) | mortality at 200 ppm (Thrips tabaci) | percent effect (mortality or growth inhibition) at 200 ppm (Diabrotica balteata) | mortality at 200 ppm (Myzus persicae) | percent control (mortality, anti-feedant effect or growth inhibition) at 12.5 ppm (Spodoptera littoralis [2])
